Experimental data as given in patent publication US4296126A, “3-Aryloxy-3-aryl-propaneamines and their method of use” (Roussel Uclaf, priority 1978, dated 1981).
Counter-ions that a name gives are not always drawn.

Key:
dogs = assay: Anorexigenic activity in dogs (method of Adams et al); format: in vivo, dog; conditions: Canis lupus familiaris, po, compound given in lieu of first ball, balls offered every 10 minutes for 7 hours, activity grew with increasing doses, read-out: dose at which anorexigenic activity was shown (refusal of food balls)
Procedure: The anorexigenic activity was studied in dogs using the method of Adams et al [J. Pharm. Sci., Vol. 53, (1964), p. 1405]. On the day of the test with the compound presumed to be anorexigenic, the individual daily ration of the animal was divided into about equal balls (10 to 20 g) which were offered to the dog every 10 minutes for 7 hours. Normally, the animal will regularly accept the successive balls when they are presented.

[1] = Acute toxicity, LD50 in mice after intraperitoneal administration; conditions: mouse, in vivo, ip, determined 48 hours after administration
Procedure: The LD50 or lethal dose at which 50% of the animals died after intraperitoneal administration of the test compound to mice was determined 48 hours after the administration.

SMILES: CN(C)CCC(Oc1ccc([N+](=O)[O-])cc1)c1ccccc1 (centres unmarked) [Example 1, N,N-dimethyl-γ-(4-nitrophenoxy)-benzene-propanamine oxalate]
- minimal effective dose (dogs): 3 mg/kg
- LD50 at 48 h [1]: ~75 mg/kg
